Entries after “also recorded” stand apart in the source; their conditions may differ. Marks after values point to notes of the source that are not given here.
Tests used:
human PBMCs = assay: Human PBMC cytokine response assay (IFN-γ and IFN-α in cell-free medium by ELISA), with or without cPLGA; assay type: cell-based;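 on IFN-α (pg/ml) mean: 20 µg/mL compound for 24 hours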;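 on IFN-γ (pg/ml) mean: 20 µg/mL compound for 24 hours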
PBMCs = assay: Human PBMC proliferation assay (3H-thymidine incorporation); assay type: cell-based; conditions: Experiment A; for mean cpm: 2 μg/ml
[1] = tested on: hepatitis B surface antigen (HBsAg); conditions: in vivo
CD19+ B cells = assay: Human B cell proliferation assay (3H-thymidine incorporation); conditions: 2 μg/ml; for cpm1 / cpm2 / cpm3 / mean cpm / mean of both: B cells
[2] = donor 28066, 20 ug/ml, 24 h, + PLGA = premixed with 100 μg/ml cPLGA
[3] = donor 28067, 20 ug/ml, 24 h, + PLGA = premixed with 100 μg/ml cPLGA
[4] = donor 28068, 20 ug/ml, 24 h, + PLGA = premixed with 100 μg/ml cPLGA
[5] = mean of Donors 1-2, 20 μg/ml, 24 h
[6] = mean of Donors 9-12, 20 μg/ml, 24 h
[7] = mean of donors 110, 112, 119, 120, Table 14
[8] = mean of donors 28065-28068, 20 ug/ml, 24 h, + PLGA = premixed with 100 μg/ml cPLGA
[9] = mean of donors 28185-28188, Table 15

For “5′-TCGTCGA-3′-HEG-5′-ACGTTCG-3′-HEG-5′-AGATGAT-3′ [Compound C-8]”, the “IFN-α (pg/ml) Donor 1” value (human PBMCs; Donor 1, 20 μg/ml, 24 h) was 1609 pg/mL, the “IFN-γ (pg/ml) Donor 1” value (human PBMCs; Donor 1, 20 μg/ml, 24 h) was 1916 pg/mL and the “IFN-α (pg/ml) Donor 2” value (human PBMCs; Donor 2, 20 μg/ml, 24 h) was 44 pg/mL. For the same substance, the “IFN-γ (pg/ml) Donor 2” value (human PBMCs; Donor 2, 20 μg/ml, 24 h) was 696 pg/mL, the “IFN-α Donor 9” value (human PBMCs; Donor 9, 20 μg/ml, 24 h) was 58 and the “IFN-γ Donor 9” value (human PBMCs; Donor 9, 20 μg/ml, 24 h) was 312. For the same substance, the “IFN-α Donor 10” value (human PBMCs; Donor 10, 20 μg/ml, 24 h) was 30, the “IFN-γ Donor 10” value (human PBMCs; Donor 10, 20 μg/ml, 24 h) was 35 and the “IFN-α Donor 11” value (human PBMCs; Donor 11, 20 μg/ml, 24 h) was 18. For the same substance, the “IFN-γ Donor 11” value (human PBMCs; Donor 11, 20 μg/ml, 24 h) was 31, the “IFN-α Donor 12” value (human PBMCs; Donor 12, 20 μg/ml, 24 h) was 49 and the “IFN-γ Donor 12” value (human PBMCs; Donor 12, 20 μg/ml, 24 h) was 28. For the same substance, the IFN-α (human PBMCs; Table 9, donor 28089) was 21 pg/mL, the IFN-γ (human PBMCs; Table 9, donor 28089) was 62 pg/mL and the IFN-α (human PBMCs; Table 9, donor 28090) was 124 pg/mL. It also gave an IFN-γ (human PBMCs; Table 9, donor 28090) of 52 pg/mL, an IFN-α (human PBMCs; Table 9, donor 28098) of 314 pg/mL and an IFN-γ (human PBMCs; Table 9, donor 28098) of 205 pg/mL. The IFN-α (human PBMCs; Table 9, donor 28099) was 362 pg/mL, the IFN-γ (human PBMCs; Table 9, donor 28099) was 116 pg/mL and the IFN-α mean (human PBMCs; Table 9, mean of donors) was 205 pg/mL. For the same substance, the IFN-γ mean (human PBMCs; Table 9, mean of donors) was 109 pg/mL, the IFN-α (human PBMCs; Table 10, donor 28042) was 20 pg/mL and the IFN-γ (human PBMCs; Table 10, donor 28042) was 468 pg/mL. The IFN-α (human PBMCs; Table 10, donor 28043) was 51 pg/mL, the IFN-γ (human PBMCs; Table 10, donor 28043) was 939 pg/mL and the IFN-α (human PBMCs; Table 10, donor 28044) was 32 pg/mL. The IFN-γ (human PBMCs; Table 10, donor 28044) was 1000 pg/mL, the IFN-α (human PBMCs; Table 10, donor 28045) was 5 pg/mL and the IFN-γ (human PBMCs; Table 10, donor 28045) was 234 pg/mL. For the same substance, the IFN-α mean (human PBMCs; Table 10, mean of donors) was 27 pg/mL, the IFN-γ mean (human PBMCs; Table 10, mean of donors) was 660 pg/mL and the IFN-α (human PBMCs; Table 11, donor 28042) was 78 pg/mL. It also gave an IFN-γ (human PBMCs; Table 11, donor 28042) of 623 pg/mL, an IFN-α (human PBMCs; Table 11, donor 28043) of 25 pg/mL and an IFN-γ (human PBMCs; Table 11, donor 28043) of 753 pg/mL. For the same substance, the IFN-α (human PBMCs; Table 11, donor 28044) was 52 pg/mL, the IFN-γ (human PBMCs; Table 11, donor 28044) was 646 pg/mL and the IFN-α (human PBMCs; Table 11, donor 28045) was 256 pg/mL. It also gave an IFN-γ (human PBMCs; Table 11, donor 28045) of 604 pg/mL, an IFN-α mean (human PBMCs; Table 11, mean of donors) of 103 pg/mL and an IFN-γ mean (human PBMCs; Table 11, mean of donors) of 656 pg/mL. It also gave an IFN-α (human PBMCs; Table 13, donor 28156) of 102 pg/mL, an IFN-γ (human PBMCs; Table 13, donor 28156) of 1612 pg/mL and an IFN-α (human PBMCs; Table 13, donor 28157) of 755 pg/mL. It also gave an IFN-γ (human PBMCs; Table 13, donor 28157) of 742 pg/mL, an IFN-α (human PBMCs; Table 13, donor 28158) of 61 pg/mL and an IFN-γ (human PBMCs; Table 13, donor 28158) of 340 pg/mL. It also gave an IFN-α (human PBMCs; Table 13, donor 28159) of 160 pg/mL, an IFN-γ (human PBMCs; Table 13, donor 28159) of 197 pg/mL and an IFN-α mean (human PBMCs; Table 13, mean of donors) of 270 pg/mL. The IFN-γ mean (human PBMCs; Table 13, mean of donors) was 723 pg/mL, the “IFN-α” value (human PBMCs; donor 110, Table 14) was 196 pg/mL and the “IFN-γ” value (human PBMCs; donor 110, Table 14) was 1152 pg/mL. The “IFN-α” value (human PBMCs; donor 112, Table 14) was 30 pg/mL, the “IFN-γ” value (human PBMCs; donor 112, Table 14) was 540 pg/mL and the “IFN-α” value (human PBMCs; donor 119, Table 14) was 264 pg/mL. For the same substance, the “IFN-γ” value (human PBMCs; donor 119, Table 14) was 136 pg/mL, the “IFN-α” value (human PBMCs; donor 120, Table 14) was 42 pg/mL and the “IFN-γ” value (human PBMCs; donor 120, Table 14) was 48 pg/mL. The “IFN-γ (pg/ml) 28065” value (human PBMCs; donor 28065 (high background), 20 ug/ml, 24 h, + PLGA = premixed with 100 μg/ml cPLGA, 1000 = outside assay limits) was 1000 pg/mL, the “IFN-α (pg/ml) 28065” value (human PBMCs; donor 28065, 20 ug/ml, 24 h, + PLGA = premixed with 100 μg/ml cPLGA) was 123 pg/mL and the “IFN-α (pg/ml) 28066” value (human PBMCs; [2]) was 6 pg/mL. For the same substance, the “IFN-γ (pg/ml) 28066” value (human PBMCs; [2]) was 19 pg/mL, the “IFN-α (pg/ml) 28067” value (human PBMCs; [3]) was 96 pg/mL and the “IFN-γ (pg/ml) 28067” value (human PBMCs; [3]) was 56 pg/mL. For the same substance, the “IFN-α (pg/ml) 28068” value (human PBMCs; [4]) was 358 pg/mL, the “IFN-γ (pg/ml) 28068” value (human PBMCs; [4]) was 419 pg/mL and the “IFN-a” value (human PBMCs; donor 28185, Table 15) was 196 pg/mL. For the same substance, the “IFN-g” value (human PBMCs; donor 28185, Table 15) was 154 pg/mL, the “IFN-a” value (human PBMCs; donor 28186, Table 15) was 31 pg/mL and the “IFN-g” value (human PBMCs; donor 28186, Table 15) was 25 pg/mL. The “IFN-a” value (human PBMCs; donor 28187, Table 15) was 202 pg/mL, the “IFN-g” value (human PBMCs; donor 28187, Table 15) was 123 pg/mL and the “IFN-a” value (human PBMCs; donor 28188, Table 15) was 4 pg/mL. For the same substance, the “IFN-g” value (human PBMCs; donor 28188, Table 15) was 9 pg/mL, the “IFN-α (pg/ml) mean” value (human PBMCs; [5]) was 827 pg/mL and the “IFN-γ (pg/ml) mean” value (human PBMCs; [5]) was 1306 pg/mL. The IFN-α mean (human PBMCs; [6]) was 39, the IFN-γ mean (human PBMCs; [6]) was 102 and the “IFN-α (pg/ml) mean” value (human PBMCs; [7]) was 133 pg/mL. For the same substance, the “IFN-γ (pg/ml) mean” value (human PBMCs; [7]) was 469 pg/mL, the “IFN-α (pg/ml) mean” value (human PBMCs; [8]) was 146 pg/mL and the “IFN-γ (pg/ml) mean” value (human PBMCs; [8]) was 373 pg/mL. For the same substance, the “IFN-a (pg/ml) mean” value (human PBMCs; [9]) was 108 pg/mL, the “IFN-g (pg/ml) mean” value (human PBMCs; [9]) was 78 pg/mL and the “IFN-a (pg/ml) ×2” value (human PBMCs; mean ×2, Table 15) was 217 pg/mL. For the same substance, the “IFN-g (pg/ml) ×4” value (human PBMCs; mean ×4, Table 15) was 311 pg/mL, the “immunomodulatory activity (IFN-γ / IFN-α secretion), in words” value (human PBMCs; used alone (no cPLGA)) was “more active than other CG-containing CICs; also recorded: most active CICs” and the cpm1 (PBMCs; Donor 146, 2 μg/ml) was 47202 cpm. It also gave a cpm2 (PBMCs; Donor 146, 2 μg/ml) of 40790 cpm, a cpm3 (PBMCs; Donor 146, 2 μg/ml) of 44811 cpm and a mean cpm (PBMCs; Donor 146 mean) of 44268 cpm. For the same substance, the cpm1 (PBMCs; Donor 147, 2 μg/ml) was 38845 cpm, the cpm2 (PBMCs; Donor 147, 2 μg/ml) was 39733 cpm and the cpm3 (PBMCs; Donor 147, 2 μg/ml) was 27981 cpm. The mean cpm (PBMCs; Donor 147 mean) was 35520 cpm, the mean of both (PBMCs; mean of Donors 146 and 147, 2 μg/ml) was 39894 cpm and the “Anti-HBsAg (mIU/ml) post-first, Mean” value [1] was 22 mIU/ml. The “Anti-HBsAg (mIU/ml) post-second, Mean” value [1] was 9294** mIU/ml, the “B cell proliferation, in words” value (CD19+ B cells; 48 h plus 8 h 3H-thymidine pulse) was “cause B cells to proliferate” and the cpm1 (CD19+ B cells; Donor 146, Experiment A) was 23815 cpm. For the same substance, the cpm2 (CD19+ B cells; Donor 146, Experiment A) was 30066 cpm, the cpm3 (CD19+ B cells; Donor 146, Experiment A) was 22969 cpm and the mean cpm (CD19+ B cells; Donor 146 mean, Experiment A) was 25617 cpm. For the same substance, the cpm1 (CD19+ B cells; Donor 147, Experiment A) was 20914 cpm, the cpm2 (CD19+ B cells; Donor 147, Experiment A) was 22370 cpm and the cpm3 (CD19+ B cells; Donor 147, Experiment A) was 23659 cpm. For the same substance, the mean cpm (CD19+ B cells; Donor 147 mean, Experiment A) was 22314 cpm, the cpm1 (CD19+ B cells; donor 121, Experiment B) was 2604 cpm and the cpm2 (CD19+ B cells; donor 121, Experiment B) was 12078 cpm. For the same substance, the cpm3 (CD19+ B cells; donor 121, Experiment B) was 17696 cpm, the mean cpm (CD19+ B cells; donor 121 mean, Experiment B) was 10793 cpm and the cpm1 (CD19+ B cells; donor 194, Experiment B) was 9333 cpm. The cpm2 (CD19+ B cells; donor 194, Experiment B) was 9391 cpm, the cpm3 (CD19+ B cells; donor 194, Experiment B) was 7602 cpm and the mean cpm (CD19+ B cells; donor 194 mean, Experiment B) was 8775 cpm. It also gave a mean of both (CD19+ B cells; mean of Donors 146 and 147, Experiment A) of 23966 cpm and a mean of both (CD19+ B cells; mean of donors 121 and 194, Experiment B) of 9784 cpm.
